This is an account of results in patent US12102648B2, “Orally-bioavailable nucleoside analogs” (priority 2021, dated 2024).

Read-outs that look alike come from different tables or passages of the source.

In one data set the test system is Caco-2 cell monolayer. The data set can be described thus: in vitro. Conditions: human, Caco-2, 90 min. It is filed as in vitro ADME. Put shortly:
(§1)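 Permeability measured in both directions across 19-day Caco-2 layers with TEER above 600 […], incubated at 37° C without shaking; donor and receiver sampled at 10 and 90 min for LC/MS/MS. Derived values: Papp (cm/s), efflux ratio, recovery.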

The next data set can be described thus: in vitro. Particulars: human. It is filed as in vitro ADME. The method in brief:
as §1

For data set [1] the following is noted: cited from earlier work.
The conditions of data set [2]: rats; cited from earlier work.

On to `N#C[C@@]1(c2ccc3c(NC(=O)[C@@H](N)Cc4ccc(F)cc4)ncnn23)O[C@H](CO)[C@@H](O)[C@H]1O` [Compound 84, (S)-2-amino-N-(7-((2R,3R,4S,5R)-2-cyano-3,4-dihydroxy-5-(hydroxymethyl)tetrahydrofuran-2-yl)pyrrolo[2,1-f][1,2,4]triazin-4-yl)-3-(4-fluorophenyl)propenamide], for which, in the data set on Caco-2 cell monolayer, the “Papp, A-B” value turned out to be 0 ×10⁻⁶ cm/s and the “Papp, B-A” value was found to be 0 ×10⁻⁶ cm/s.
On to `CC(C)C(=O)Nc1ncnn2c([C@]3(C#N)O[C@H](COC(=O)Cc4ccccc4)[C@@H](OC(=O)[C@@H](N)C(C)(C)C)[C@H]3O)ccc12` [Compound 401, (2R,3S,4R,5R)-5-cyano-4-hydroxy-5-(4-isobutyramidopyrrolo[2,1-f][1,2,4]triazin-7-yl)-2-((2-phenylacetoxy)methyl)tetrahydrofuran-3-yl (S)-2-amino-3,3-dimethylbutanoate], for which the Papp A→B at 90 min in “in vitro” (Caco-2 monolayer, apical to basolateral, 90-minute incubation, read-out: Papp, A-B) stood at 3.8 ×10⁻⁶ cm/s. In the data set “in vitro” (Caco-2 monolayer, basolateral to apical, 90-minute incubation, read-out: Papp, B-A), the Papp B→A at 90 min turned out to be 15.3 ×10⁻⁶ cm/s. Besides, the efflux ratio at 90 min in the data set “in vitro” (Caco-2 monolayer, ER>2 indicates potential efflux transporter substrate, read-out: ER (efflux ratio)) stood at 4.1.
As to `CCCC(=O)Nc1ncnn2c([C@]3(C#N)O[C@H](COC(=O)CC4CCCCC4)[C@@H](OCOC(=O)C(C)(C)C)[C@H]3O)ccc12` [Compound 409, (((2R,3S,4R,5R)-5-(4-butyramidopyrrolo[2,1-f][1,2,4]triazin-7-yl)-5-cyano-2-((2-cyclohexylacetoxy)methyl)-4-hydroxytetrahydrofuran-3-yl)oxy)methyl pivalate], in “in vitro” (Caco-2), the Papp A→B at 90 min worked out at 0.46 ×10⁻⁶ cm/s, the Papp B→A at 90 min amounted to 0.1 ×10⁻⁶ cm/s and the efflux ratio at 90 min worked out at 0.22.
Turning to `CC(C)(C)[C@H](N)C(=O)OC[C@H]1O[C@@](C#N)(c2ccc3c(N)ncnn23)[C@H](O)[C@@H]1O` [Compound 410, ((2R,3S,4R,5R)-5-(4-aminopyrrolo[2,1-f][1,2,4]triazin-7-yl)-5-cyano-3,4-dihydroxytetrahydrofuran-2-yl)methyl (S)-2-amino-3,3-dimethylbutanoate], in “in vitro” (Caco-2), the Papp A→B at 90 min was 0.47 ×10⁻⁶ cm/s, the Papp B→A at 90 min was 1.49 ×10⁻⁶ cm/s and the efflux ratio at 90 min is 3.2.
As to `CC(C)(C)[C@@H](N)C(=O)OC[C@H]1O[C@@](C#N)(c2ccc3c(N)ncnn23)[C@H](O)[C@@H]1O` [Compound 411, ((2R,3S,4R,5R)-5-(4-aminopyrrolo[2,1-f][1,2,4]triazin-7-yl)-5-cyano-3,4-dihydroxytetrahydrofuran-2-yl)methyl (R)-2-amino-3,3-dimethylbutanoate], in the data set “in vitro” (Caco-2), the Papp A→B at 90 min stood at 0.12 ×10⁻⁶ cm/s, the apparent permeability from basolateral to apical (Papp B→A) at 90 min is 2.5 ×10⁻⁶ cm/s and the efflux ratio at 90 min worked out at 20.7.
Turning to `CC(=O)O[C@H]1[C@@H](OC(C)=O)[C@](C#N)(c2ccc3c(N)ncnn23)O[C@@H]1COC(=O)C(C)(C)C1CCCCC1` [Compound 412, (2R,3R,4R,5R)-2-(4-aminopyrrolo[2,1-f][1,2,4]triazin-7-yl)-2-cyano-5-(((2-cyclohexyl-2-methylpropanoyl)oxy)methyl)tetrahydrofuran-3,4-diyl diacetate], in “in vitro” (Caco-2), the Papp A→B at 90 min was 5.1 ×10⁻⁶ cm/s, the basolateral-to-apical permeability (Papp B→A) at 90 min stood at 0.9 ×10⁻⁶ cm/s and the efflux ratio at 90 min stood at 0.2.
In the case of `CC(=O)N[C@H](C(=O)OC[C@H]1O[C@@](C#N)(c2ccc3c(N)ncnn23)[C@H](O)[C@@H]1OC(=O)CC1CCCCC1)C(C)(C)C` [Compound 413, ((2R,3S,4R,5R)-5-(4-aminopyrrolo[2,1-f][1,2,4]triazin-7-yl)-5-cyano-3-(2-cyclohexylacetoxy)-4-hydroxytetrahydrofuran-2-yl)methyl (S)-2-acetamido-3,3-dimethylbutanoate], in “in vitro” (Caco-2), the Papp A→B at 90 min stood at 4.3 ×10⁻⁶ cm/s, the Papp B→A at 90 min is 13.8 ×10⁻⁶ cm/s and the efflux ratio at 90 min was 3.2.
In the case of `N#C[C@@]1(c2ccc3c(N)ncnn23)O[C@H](CO)[C@@H](O)[C@H]1O` [GS-441524], the T½ in plasma result in data set [1] (plasma, following IV administration) is recorded as “about 24.5 hr”. Further, the “% F (oral bioavailability)” value in data set [2] is 4.8%.
Regarding `CCC(CC)COC(=O)[C@H](C)N[P@](=O)(OC[C@H]1O[C@@](C#N)(c2ccc3c(N)ncnn23)[C@H](O)[C@@H]1O)Oc1ccccc1` [remdesivir, Remdesivir], in data set [1] (in vivo, iv), the “T1/2 (hydrolysis by esterases)” value is listed as “about 1 hr”.

The Papp A→B is the apparent permeability from the apical to the basolateral side of a cell layer. A word on the Papp B→A: it is the apparent permeability from the basolateral to the apical side of a cell layer.
